Among the data in patent US20230339939A1 (Bayer Aktiengesellschaft, priority 2020, published 2023) are IC50 values, retold here.

Experiment [1] has as its target wild-type Epidermal Growth Factor Receptor (EGFR) (Homo sapiens (Human), UniProt P00533). Briefly: WT-EGFR Kinase Assay (TR-FRET, 2 mM ATP). Type of experiment: biochemical. An excerpt:
Inhibitory activity of compounds of the present invention against wild-type Epidermal Growth Factor Receptor (EGFR) was quantified employing the TR-FRET based EGFR assay as described in the following paragraphs.
Recombinant fusion protein of N-terminal Glutathion-S-Transferase (GST) and a fragment of human EGFR (amino acids R669 to A1210), expressed in Sf9 insect cells and purified via affinity chromatography using Glutathion Sepharose as described above, was used as kinase. As substrate for the kinase reaction the biotinylated peptide biotin-Ahx-[…] (C-terminus in amide form) was used which can be purchased e.g. form the company Biosynthan GmbH (Berlin-Buch, Germany).
For the assay 50 nl of a 100 fold concentrated solution of the test compound in DMSO was pipetted into either a black low volume 384 well microtiter plate or a black 1536 well microtiter plate (both Greiner Bio-One, Frickenhausen, Germany), 2 μL of a solution of EGFR in aqueous assay buffer [50 mM Hepes pH 7.0, 10 mM MgCl2, 1 mM dithiothreitol, 0.5 mM EGTA, 0.3 mM activated sodium ortho-vanadate, 0.005% (w/v) bovine serum albumin, 0.005% (v/v) Tween-20] were added and the mixture was incubated for 15 min at 22° C. to allow pre-binding of the test compounds to the enzyme before the start of the kinase reaction. […] The concentration of EGFR was adjusted depending of the activity of the enzyme lot and was chosen appropriate to have the assay in the linear range, typical concentration was 7.6 pg/μL. The reaction was stopped by the addition of 3 μL of a solution of HTRF detection reagents (83.3 nM streptavidine-XL665 [Cisbio Bioassays, Codolet, France] and 1.67 nM PT66-Tb-Cryptate, a terbium-cryptate labelled anti-phospho-tyrosine antibody from Cisbio Bioassays [instead of the PT66-Tb-cryptate PT66-Eu-Chelate from Perkin Elmer can also be used]) in an aqueous EDTA-solution (133.3 mM EDTA, 0.2% (w/v) bovine serum albumin in 50 mM HEPES pH 7.5).
The resulting mixture was incubated 1 h at 22° C. to allow the binding of the biotinylated phosphorylated peptide to the streptavidine-XL665 and the PT66-Tb-Cryptate. Subsequently the amount of phosphorylated substrate was evaluated by measurement of the resonance energy transfer from the PT66-Tb-Cryptate to the streptavidine-XL665. Therefore, the fluorescence emissions at 620 nm and 665 nm after excitation at 337 nm were measured in a HTRF reader, e.g. a Pherastar (BMG Labtechnologies, Offenburg, Germany) or a Viewlux (Perkin-Elmer). The ratio of the emissions at 665 nm and at 622 nm was taken as the measure for the amount of phosphorylated substrate.

Experiment [2] has as its target CSNK1A1 (Homo sapiens (Human), UniProt P48729). Briefly: CSNK1A1 High ATP Assay (ADP-Glo, 1 mM ATP). Type of experiment: biochemical. To be noted: median, read-out: CSNK1A1 high ATP assay IC50 [mol/l] (median). Here is the method:
CSNK1A1-inhibitory activity of compounds of the present invention in presence of 1 mM adenosine-tri-phosphate (ATP) was quantified employing the CSNK1A1-high-ATP-assay as described in the following paragraphs. In essence, the enzyme activity is measured by quantification of the adenosine-di-phosphate (ADP), which is generated as a co-product of the enzyme reaction, via the “ADP-Glo™ Kinase Assay” kit from the company Promega. This detection system works as follows: In a first step the ATP not consumed in the kinase reaction is quantitatively converted to cAMP employing an adenylate cyclase (“ADP-Glo-reagent”), then the adenylate cyclase is stopped and the ADP generated in the kinase reaction converted to ATP which generates in a luciferase-based reaction a glow-luminescence signal (“Kinase Detection Reagent”).
Recombinant fusion protein of N-terminal Glutathion-S-Transferase (GST) and full-length human CSNK1A1, expressed by baculovirus infected insect cells and purified via Glutathion affinity chromatography, was purchased from Life Technologies (product no. PV4174) and used as enzyme. As substrate for the kinase reaction the biotinylated peptide biotin-Ahx-KRRRAL-pS-VASLPGL (C-terminus in amide form) was used which can be purchased e.g. from the company Biosyntan (Berlin-Buch, Germany).
For the assay 50 nl of a 100 fold concentrated solution of the test compound in DMSO was pipetted into a white low volume 384-well microtiter plate (Greiner Bio-One, Frickenhausen, Germany), 2 μL of a solution of CSNK1A1 in aqueous assay buffer [50 mM HEPES pH 7.5, 10% (v/v) glycerol, 10 mM MgCl2, 50 mM NaCl, 1 mM dithiothreitol, 0.01% (w/v) bovine serum albumin, 0.01% (v/v) Triton X-100] were added and the mixture was incubated for 15 min at 22° C. to allow pre-binding of the test compounds to the enzyme before the start of the kinase reaction. […] The concentration of CSNK1A1 was adjusted depending of the activity of the enzyme lot and was chosen appropriate to have the assay in the linear range, a typical concentration is about 0.4 ng/μL. The reaction was stopped by the addition of 2.5 μL of “ADP-Glo-reagent” (1:1.5 fold diluted with water) and the resulting mixture was incubated at 22° C. for 1 h to convert the ATP not consumed in the kinase reaction completely […]. Subsequently 2.5 μL of the “kinase detection reagent” (1.2 fold more concentrated than recommended by the producer) were added, the resulting mixture was incubated at 22° C. for 1 h and then the luminescence measured with a suitable measurement instrument (e.g. Viewlux™ from Perkin-Elmer). The amount of emitted light was taken as a measure for the amount of ADP generated and thereby for the activity of the CSNK1A1.

Setting [3] is: read-out: EGFR Wildtype 2 mM ATP IC50 [mol/l] (median).

Each structure is given as a SMILES string. Read-outs that look alike come from different tables or passages of the source.

Sequence of CSNK1A1 (P48729 whole entry): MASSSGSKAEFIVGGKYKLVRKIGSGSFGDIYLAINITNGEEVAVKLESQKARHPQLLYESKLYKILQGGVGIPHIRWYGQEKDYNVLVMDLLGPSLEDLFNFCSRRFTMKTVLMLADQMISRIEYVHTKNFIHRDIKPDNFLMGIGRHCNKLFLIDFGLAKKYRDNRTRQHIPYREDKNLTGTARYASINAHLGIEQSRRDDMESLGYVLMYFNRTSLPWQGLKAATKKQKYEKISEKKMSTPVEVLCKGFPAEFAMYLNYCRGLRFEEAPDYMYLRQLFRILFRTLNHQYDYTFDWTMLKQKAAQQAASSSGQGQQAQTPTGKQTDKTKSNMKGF
Sequence of wild-type Epidermal Growth Factor Receptor (EGFR) (P00533 669-1210): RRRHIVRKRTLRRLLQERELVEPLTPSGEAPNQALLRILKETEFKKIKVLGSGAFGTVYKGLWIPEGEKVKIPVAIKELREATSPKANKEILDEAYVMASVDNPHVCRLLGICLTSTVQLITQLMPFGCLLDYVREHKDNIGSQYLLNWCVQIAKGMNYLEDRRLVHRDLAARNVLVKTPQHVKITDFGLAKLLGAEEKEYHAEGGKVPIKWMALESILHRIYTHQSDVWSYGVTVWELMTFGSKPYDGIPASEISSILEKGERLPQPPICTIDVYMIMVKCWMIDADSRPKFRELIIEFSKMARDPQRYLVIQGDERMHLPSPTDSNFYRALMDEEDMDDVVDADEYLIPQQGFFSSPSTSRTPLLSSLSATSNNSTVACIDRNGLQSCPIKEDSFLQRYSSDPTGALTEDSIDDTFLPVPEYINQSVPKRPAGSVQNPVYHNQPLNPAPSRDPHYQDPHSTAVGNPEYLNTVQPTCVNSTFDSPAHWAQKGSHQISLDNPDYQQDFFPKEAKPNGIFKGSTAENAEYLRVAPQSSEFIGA

As for `CC(C(=O)Nc1cc(-c2[nH]c3ccc(F)nc3c2-c2ccccn2)ccn1)c1ccc(F)cc1` (racemic) [Example 1, 2-(4-fluorophenyl)-N-{4-[5-fluoro-3-(pyridin-2-yl)-1H-pyrrolo[3,2-b]pyridin-2-yl]pyridin-2-yl}propanamide], the figures for the IC50 in experiment [1] (median) and in experiment [2] were above 20000 nM and 16 nM, respectively.

With `CC(C(=O)Nc1cc(-c2[nH]c3cccnc3c2-c2ccccn2)ccn1)c1ccc(F)cc1` (racemic) [Example 6, 2-(4-fluorophenyl)-N-{4-[3-(pyridin-2-yl)-1H-pyrrolo[3,2-b]pyridin-2-yl]pyridin-2-yl}propanamide], the figures for the IC50 in experiment [1] (median) and in experiment [2] were above 20000 nM and 8.47 nM, respectively.

As to `CC(C(=O)Nc1cc(-c2[nH]c3cccnc3c2-c2ccccc2)ccn1)c1ccc(F)cc1` (racemic) [Example 11, 2-(4-fluorophenyl)-N-[4-(3-phenyl-1H-pyrrolo[3,2-b]pyridin-2-yl)pyridin-2-yl]propanamide], the IC50 in experiment [1] (median) is above 20000 nM; in experiment [2] it was 321 nM.

For the molecule `Cc1cc2[nH]c(-c3ccnc(NC(=O)C(C)c4ccc(F)cc4)c3)c(-c3ccccn3)c2nc1F` (racemic) [Example 28, N-{4-[5-fluoro-6-methyl-3-(pyridin-2-yl)-1H-pyrrolo[3,2-b]pyridin-2-yl]pyridin-2-yl}-2-(4-fluorophenyl)propanamide], the IC50 in experiment [1] (median) is above 20000 nM; in experiment [2] it was 59.1 nM.

For the molecule `COCC(C(=O)Nc1cc(-c2[nH]c3cccnc3c2-c2ccccn2)ccn1)c1ccc(F)cc1` (racemic) [Example 43, (2RS)-2-(4-fluorophenyl)-3-methoxy-N-(4-(3-(pyridin-2-yl)-1H-pyrrolo[3,2-b]pyridin-2-yl)pyridin-2-yl)propanamide], the values for the IC50 in experiment [1] (median) and in experiment [2] were above 20000 nM and 40.1 nM, respectively.

On to `COCCC(C(=O)Nc1cc(-c2[nH]c3cccnc3c2-c2ccccn2)ccn1)c1ccc(F)cc1` (racemic) [Example 44], for which the IC50 in experiment [1] (median) was above 20000 nM; in experiment [2], 59.2 nM.

Consider `COCC(C(=O)Nc1cc(-c2[nH]c3cc(F)cnc3c2-c2ccccn2)ccn1)c1ccc(F)cc1` (racemic) [Example 45, (2RS)-2-(4-fluorophenyl)-N-[4-[6-fluoro-3-(2-pyridyl)-1H-pyrrolo[3,2-b]pyridin-2-yl]-2-pyridyl]-3-methoxy-propanamide], for which the results for the IC50 in experiment [1] (median) and in experiment [2] were above 20000 nM and 38.8 nM, respectively.

For `CC(C(=O)Nc1cc(-c2[nH]c3ccc(F)nc3c2-c2ccccn2)ccn1)c1ccc(F)cc1` (single isomer, unassigned; (+)) [Example 3, (+)-2-(4-fluorophenyl)-N-{4-[5-fluoro-3-(pyridin-2-yl)-1H-pyrrolo[3,2-b]pyridin-2-yl]pyridin-2-yl}propanamide], the results for the IC50 in experiment [1] (setting [3]) and in experiment [2] were above 20000 nM and 12 nM, respectively.

`CC(C(=O)Nc1cc(-c2[nH]c3cccnc3c2-c2ccccn2)ccn1)c1ccc(F)cc1` (single isomer, unassigned; (+)) [Example 7, (+)-2-(4-fluorophenyl)-N-{4-[3-(pyridin-2-yl)-1H-pyrrolo[3,2-b]pyridin-2-yl]pyridin-2-yl}propanamide]: the results for the IC50 in experiment [1] (median) and in experiment [2] were above 20000 nM and 4.32 nM, respectively.

With `CC(C)C(C(=O)Nc1cc(-c2[nH]c3ccc(F)nc3c2-c2ccccn2)ccn1)c1ccc(F)cc1` (single isomer, unassigned; (+)) [Example 26, (+)-2-(4-fluorophenyl)-N-{4-[5-fluoro-3-(pyridin-2-yl)-1H-pyrrolo[3,2-b]pyridin-2-yl]pyridin-2-yl}-3-methylbutanamide], the results for the IC50 in experiment [1] (setting [3]) and in experiment [2] were above 20000 nM and 48.6 nM, respectively.

Consider `Cc1cc2[nH]c(-c3ccnc(NC(=O)C(C)c4ccc(F)cc4)c3)c(-c3ccccn3)c2nc1F` (single isomer, unassigned; (+)) [Example 29, (+)-N-{4-[5-fluoro-6-methyl-3-(pyridin-2-yl)-1H-pyrrolo[3,2-b]pyridin-2-yl]pyridin-2-yl}-2-(4-fluorophenyl)propanamide], for which the IC50 was above 20000 nM in experiment [1] (median) and 1140 nM in experiment [2].

For `CC(C(=O)Nc1cc(-c2[nH]c3ccc(F)nc3c2-c2ccccn2)ccn1)c1ccc(F)cc1` (single isomer, unassigned; (-)) [Example 2, (−)-2-(4-fluorophenyl)-N-{4-[5-fluoro-3-(pyridin-2-yl)-1H-pyrrolo[3,2-b]pyridin-2-yl]pyridin-2-yl}propanamide], the results for the IC50 in experiment [1] (median) and in experiment [2] were above 20000 nM and 886 nM, respectively.

With `CC(C(=O)Nc1cc(-c2[nH]c3cccnc3c2-c2ccccn2)ccn1)c1ccc(F)cc1` (single isomer, unassigned; (-)) [Example 8, (−)-2-(4-fluorophenyl)-N-{4-[3-(pyridin-2-yl)-1H-pyrrolo[3,2-b]pyridin-2-yl]pyridin-2-yl}propanamide], the IC50 in experiment [1] (setting [3]) is above 20000 nM; in experiment [2] it was 334 nM.

With `CC(C)C(C(=O)Nc1cc(-c2[nH]c3ccc(F)nc3c2-c2ccccn2)ccn1)c1ccc(F)cc1` (single isomer, unassigned; (-)) [Example 25, (−)-2-(4-fluorophenyl)-N-{4-[5-fluoro-3-(pyridin-2-yl)-1H-pyrrolo[3,2-b]pyridin-2-yl]pyridin-2-yl}-3-methylbutanamide], the IC50 in experiment [1] (median) was above 20000 nM; in experiment [2] it was 2320 nM.

Regarding `Cc1cc2[nH]c(-c3ccnc(NC(=O)C(C)c4ccc(F)cc4)c3)c(-c3ccccn3)c2nc1F` (single isomer, unassigned; (-)) [Example 30, (−)-N-{4-[5-fluoro-6-methyl-3-(pyridin-2-yl)-1H-pyrrolo[3,2-b]pyridin-2-yl]pyridin-2-yl}-2-(4-fluorophenyl)propanamide], the IC50 in experiment [1] (setting [3]) is above 20000 nM; in experiment [2], 23.7 nM.

As to `O=C(Cc1ccc(F)cc1)Nc1cc(-c2[nH]c3ccc(F)nc3c2-c2ccccn2)ccn1` [Example 4, 2-(4-fluorophenyl)-N-{4-[5-fluoro-3-(pyridin-2-yl)-1H-pyrrolo[3,2-b]pyridin-2-yl]pyridin-2-yl}acetamide], the values for the IC50 in experiment [1] (setting [3]) and in experiment [2] were above 20000 nM and 5.72 nM, respectively.

Consider `O=C(Cc1ccc(F)cc1)Nc1cc(-c2[nH]c3cccnc3c2-c2ccccn2)ccn1` [Example 5, 2-(4-fluorophenyl)-N-{4-[3-(pyridin-2-yl)-1H-pyrrolo[3,2-b]pyridin-2-yl]pyridin-2-yl}acetamide], for which the figures for the IC50 in experiment [1] (setting [3]) and in experiment [2] were above 20000 nM and 6.1 nM, respectively.
